The supplement of paper PMC10307832

Experiments:
Test in all cases: relative viability (nuclei count vs DMSO), 5 days (fraction); higher = more cells survive
[1] = compound: C=C(c1ccc(C(=O)O)cc1)c1cc2c(cc1C)C(C)(C)CCC2(C)C [Bexarotene] + CC(C)C[C@H](NC(=O)[C@H](Cc1ccccc1)NC(=O)c1cnccn1)B(O)O [Bortezomib] (partner 0.002 µM)
Summary of the method: (§1)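 For relative viability, nuclei counts in treated wells were divided by those in vehicle wells. Lung cancer cell lines had been pin-tool dosed in 1536-well plates the day after seeding and cultured for 5 days, then fixed and stained in one step (final 0.05% Triton X-100, 1% formaldehyde, 1 ug/ml Hoechst) and imaged at 4×. Doses were one drug alone or a fixed anchor-drug dose plus five library-drug doses (not always all listed) in √10 steps, and values are duplicate-plate medians.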

[2] = compound: C=C(c1ccc(C(=O)O)cc1)c1cc2c(cc1C)C(C)(C)CCC2(C)C [Bexarotene] + NC(=O)Nc1cc(-c2cccc(F)c2)sc1C(=O)N[C@H]1CCCNC1 [AZD7762] (partner 0.2 µM)
Summary of the method: as §1

[3] = compound: C=C(c1ccc(C(=O)O)cc1)c1cc2c(cc1C)C(C)(C)CCC2(C)C [Bexarotene] + CS(=O)(=O)CCNCc1ccc(-c2ccc3ncnc(Nc4ccc(OCc5cccc(F)c5)c(Cl)c4)c3c2)o1 [Lapatinib] (partner 2 µM)
Summary of the method: as §1

[4] = compound: C=C(c1ccc(C(=O)O)cc1)c1cc2c(cc1C)C(C)(C)CCC2(C)C [Bexarotene] + Nc1ncn([C@H]2C[C@H](O)[C@@H](CO)O2)c(=O)n1 [Decitabine] (partner 2 µM)
Summary of the method: as §1

| Cell Line | relative viability ([1]; first compound 0.08 µM) | relative viability ([1]; first compound 0.253 µM) | relative viability ([1]; first compound 0.8 µM) | relative viability ([1]; first compound 2.53 µM) | relative viability ([1]; first compound 8 µM) | relative viability ([2]; first compound 0.08 µM) | relative viability ([2]; first compound 0.253 µM) | relative viability ([2]; first compound 0.8 µM) | relative viability ([2]; first compound 2.53 µM) | relative viability ([2]; first compound 8 µM) | relative viability ([3]; first compound 0.08 µM) | relative viability ([3]; first compound 0.253 µM) | relative viability ([3]; first compound 0.8 µM) | relative viability ([3]; first compound 2.53 µM) | relative viability ([3]; first compound 8 µM) | relative viability ([4]; first compound 0.08 µM) | relative viability ([4]; first compound 0.253 µM) | relative viability ([4]; first compound 0.8 µM) | relative viability ([4]; first compound 2.53 µM) | relative viability ([4]; first compound 8 µM) |
| --- | --- | --- | --- | --- | --- | --- | --- | --- | --- | --- | --- | --- | --- | --- | --- | --- | --- | --- | --- | --- |
| 201T | 1.08 | 1.1 | 1.07 | 1.08 | 1.05 | 0.796 | 0.612 | 0.714 | 0.591 | 0.514 | 1.01 | 0.945 | 1.03 | 1.02 | 0.997 | 0.828 | 0.858 | 0.746 | 0.781 | 0.692 |
| A549 |  |  |  |  |  |  |  |  |  |  | 0.94 | 1.09 | 0.972 | 0.925 | 0.798 | 0.256 | 0.291 | 0.318 | 0.242 | 0.237 |
| A-427 | 0.933 | 0.923 | 0.79 | 0.897 | 0.932 | 0.79 | 0.71 | 0.736 | 0.691 | 0.688 | 1.03 | 0.997 | 0.929 | 0.997 | 1.04 | 0.57 | 0.461 | 0.435 | 0.477 | 0.533 |
| ABC-1 | 0.3 | 0.311 | 0.269 | 0.291 | 0.336 | 0.729 | 0.797 | 0.747 | 0.667 | 0.876 | 0.914 | 1.38 | 1.14 | 1.16 | 1.09 | 1.21 | 0.927 | 1.12 |  | 1.09 |
| BEN | 0.905 | 0.599 | 0.672 | 0.496 | 0.649 | 0.759 | 0.585 | 0.613 | 0.612 | 0.695 | 0.869 | 0.51 | 0.623 | 0.513 | 0.66 | 0.706 | 0.666 | 0.723 | 0.647 | 0.692 |
| CAL-12T | 1.02 |  | 0.849 |  | 0.816 | 0.649 | 0.549 | 0.603 | 0.427 | 0.513 | 0.632 |  | 0.638 |  | 0.543 |  |  |  |  |  |
| COR-L23 | 1.06 | 0.989 | 0.898 | 0.933 | 0.892 |  |  |  |  |  | 1.24 | 0.921 | 0.976 | 0.976 | 0.879 | 0.47 | 0.455 | 0.438 | 0.452 | 0.416 |
| COR-L 105 | 0.98 | 0.98 | 0.988 | 0.965 | 0.909 |  |  |  |  |  | 0.404 | 0.33 | 0.322 | 0.378 | 0.345 | 0.731 | 0.704 | 0.664 | 0.616 | 0.578 |
| Calu-6 | 1 | 0.915 | 0.904 | 0.922 | 1.27 |  |  |  |  |  | 0.929 | 1.03 | 0.987 | 0.963 | 1.14 |  |  |  |  |  |
| ChaGo-K-1 | 1.04 | 1.03 | 1.05 |  | 1.06 | 0.934 | 0.828 | 0.813 | 0.832 | 0.873 |  |  |  |  |  | 0.57 | 0.512 | 0.509 | 0.489 | 0.497 |
| EKVX | 0.999 | 1.28 | 1.07 | 1.1 | 1.09 | 0.804 | 0.848 | 0.822 | 0.828 | 0.634 | 0.202 | 0.186 | 0.227 | 0.204 | 0.19 | 0.299 | 0.338 | 0.309 | 0.172 | 0.332 |
| EMC-BAC-2 | 1.24 | 1.03 | 0.97 | 1.05 | 1.03 | 1.17 | 1.09 | 1.06 |  | 1.08 | 0.923 | 0.884 | 0.812 | 0.841 | 0.887 | 1.1 | 0.948 | 0.924 |  | 0.943 |
| IA-LM | 0.683 | 0.697 | 0.596 | 0.662 | 0.518 |  |  |  |  |  |  | 0.773 | 0.68 | 0.536 | 0.694 |  |  |  |  |  |
| LCLC-103H | 1.07 | 1.03 | 0.863 | 1.11 | 1.23 | 0.807 | 0.78 | 0.64 | 0.796 | 0.842 |  |  |  |  |  | 0.811 | 0.701 | 0.689 | 0.795 | 0.742 |
| LK-2 |  |  |  |  |  | 0.675 | 0.516 | 0.547 | 0.433 | 0.418 | 1.33 | 1 | 1.04 | 0.968 | 0.961 | 0.387 | 0.308 | 0.321 | 0.35 | 0.279 |
| NCI-H358 |  |  |  |  |  | 0.546 | 0.511 | 0.505 | 0.49 | 0.572 | 0.461 | 0.464 | 0.483 | 0.574 | 0.535 | 0.212 | 0.216 | 0.184 | 0.222 | 0.185 |
| NCI-H441 | 0.472 | 0.633 | 0.592 |  | 0.619 | 1.5 | 1.28 | 1.24 | 1.1 | 1.01 |  |  |  |  |  | 0.3 | 0.283 | 0.236 | 0.229 | 0.279 |
